Laboratory results: ChEMBL document CHEMBL5252536, “Discovery of VU0467485/AZ13713945: An M4 PAM Evaluated as a Preclinical Candidate for the Treatment of Schizophrenia” (ACS Med Chem Lett, 2017)

Key:
[1] = Tmax in Beagle dog at 3 mg/kg,po by LC-MS/MS analysis; format: ADME, organism-based, Canis lupus familiaris; settings: in vivo
[2] = Terminal plasma concentration in rat model of amphetamine-induced hyperlocomotion activity at 1 to 10 mg/kg, po measured after 1.5 hrs; format: ADME, organism-based; settings: dose 1-10 mg/kg
[3] = Positive allosteric modulator activity at dog M2 receptor expressed in CHO cells co-expressing Gqi5 assessed as maximal response to ACh by calcium mobilization assay; format: cell-based
[4] = Toxicity in rat assessed as effect on autonomical parameters at 56.6 mg/kg, po measured after 6 hrs by Irwin test; format: organism-based; settings: in vivo
Rattus norvegicus [5] = test: Antipsychotic activity in amphetamine-induced hyperlocomotion activity in rat assessed as minimum effective dose at 1 administered orally preincubated for 30 mins followed by amphetamine addition and measured after 60 mins by open field test; format: functional; settings: 1.5 h, route po, time 90 min, read-out: MED
Cytochrome P450 1A2 [6] = target: T1, Cytochrome P450 1A2 (Homo sapiens, UniProt P05177); test: Inhibition of CYP1A2 in human liver microsomes using phenacetin as substrate incubated for 15 mins in presence of NADPH by LC/MS/MS analysis; format: ADME, Microsome
T1 sequence (P05177 whole entry): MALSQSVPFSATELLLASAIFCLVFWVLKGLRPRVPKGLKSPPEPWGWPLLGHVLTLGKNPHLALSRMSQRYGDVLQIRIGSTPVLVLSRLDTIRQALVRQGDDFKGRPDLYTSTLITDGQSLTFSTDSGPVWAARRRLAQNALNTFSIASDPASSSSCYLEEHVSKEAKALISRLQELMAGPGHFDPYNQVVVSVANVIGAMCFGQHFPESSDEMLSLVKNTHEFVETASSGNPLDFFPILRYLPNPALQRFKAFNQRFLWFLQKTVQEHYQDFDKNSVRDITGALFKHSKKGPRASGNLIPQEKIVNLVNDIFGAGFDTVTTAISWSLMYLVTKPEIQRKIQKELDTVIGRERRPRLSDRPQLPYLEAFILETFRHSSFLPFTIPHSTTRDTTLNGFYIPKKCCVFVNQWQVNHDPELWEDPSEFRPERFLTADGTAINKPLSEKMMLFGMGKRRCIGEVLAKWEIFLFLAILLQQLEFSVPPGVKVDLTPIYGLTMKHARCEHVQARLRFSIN

CYP3A4 (printed CYP34A) = CYP3A4 (printed CYP34A) (Homo sapiens, UniProt P08684); test: Activation of CYP34A in human hepatocyte using midazolam as substrate preincubated for 5 days followed by substrate addition and measured after 1 hr by LC-MS/MS analysis relative to control; format: ADME, cell-based; settings: hepatocytes, probe midazolam, time 121 hrs
Sequence of CYP3A4 (printed CYP34A) (P08684 whole entry): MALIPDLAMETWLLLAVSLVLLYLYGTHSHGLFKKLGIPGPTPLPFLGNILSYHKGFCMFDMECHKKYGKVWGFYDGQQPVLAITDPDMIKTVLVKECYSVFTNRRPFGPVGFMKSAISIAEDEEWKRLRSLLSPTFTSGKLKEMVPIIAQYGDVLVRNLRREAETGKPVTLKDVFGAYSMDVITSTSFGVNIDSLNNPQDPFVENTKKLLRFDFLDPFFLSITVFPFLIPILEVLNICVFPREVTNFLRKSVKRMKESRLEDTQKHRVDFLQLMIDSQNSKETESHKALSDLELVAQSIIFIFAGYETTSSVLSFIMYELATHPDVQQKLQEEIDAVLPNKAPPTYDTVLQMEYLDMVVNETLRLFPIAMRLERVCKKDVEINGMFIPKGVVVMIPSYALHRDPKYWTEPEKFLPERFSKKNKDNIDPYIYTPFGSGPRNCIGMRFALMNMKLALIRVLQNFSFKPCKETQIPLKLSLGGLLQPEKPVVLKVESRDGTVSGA

Rattus norvegicus [7] = test: Antipsychotic activity in amphetamine-induced hyperlocomotion activity in rat assessed as reversal of amphetamine-induced hyperlocomotion at 1 to 10 mg/kg, po preincubated for 30 mins followed by amphetamine addition and measured after 60 mins by open field test relative to control; format: functional; settings: dose 1-10 mg/kg, time 90 min, 1.5 h
[8] = Ratio of unbound drug level in Sprague-Dawley rat brain to plasma at 1 to 10 mg/kg, po by LC-MS/MS analysis; format: ADME, organism-based; settings: dose 1-10 mg/kg, read-out: K(p,uu,brain)
[9] = Plasma protein binding in human assessed as unbound fraction incubated for 4 hrs by LC/MS/MS analysis; format: ADME, cell-free
[10] = Oral bioavailability in Sprague-Dawley rat at 3 mg/kg by LC-MS/MS analysis; format: ADME, organism-based; settings: in vivo
[11] = Positive allosteric modulator activity at dog M4 receptor expressed in CHO cells co-expressing Gqi5 in presence of EC20 concentration of acetylcholine by calcium mobilization assay; format: cell-based
CHO = test: Positive allosteric modulator activity at cynomolgus monkey M4 receptor expressed in CHO cells co-expressing Gqi5 assessed as maximal response to ACh by calcium mobilization assay relative to contol; format: cell-based; settings: Macaca fascicularis, filed as positive allosteric modulator
Cytochrome P450 2C9 = Cytochrome P450 2C9 (Homo sapiens, UniProt P11712); test: […] of human CYP2C9 mediated drug metabolism incubated for 5 mins followed by NADPH addition measured after 1 hr by LC-UV/MS analysis relative to control; format: ADME; settings: recombinant enzyme, 1.083 h, time 65 min
Sequence of Cytochrome P450 2C9 (P11712 whole entry): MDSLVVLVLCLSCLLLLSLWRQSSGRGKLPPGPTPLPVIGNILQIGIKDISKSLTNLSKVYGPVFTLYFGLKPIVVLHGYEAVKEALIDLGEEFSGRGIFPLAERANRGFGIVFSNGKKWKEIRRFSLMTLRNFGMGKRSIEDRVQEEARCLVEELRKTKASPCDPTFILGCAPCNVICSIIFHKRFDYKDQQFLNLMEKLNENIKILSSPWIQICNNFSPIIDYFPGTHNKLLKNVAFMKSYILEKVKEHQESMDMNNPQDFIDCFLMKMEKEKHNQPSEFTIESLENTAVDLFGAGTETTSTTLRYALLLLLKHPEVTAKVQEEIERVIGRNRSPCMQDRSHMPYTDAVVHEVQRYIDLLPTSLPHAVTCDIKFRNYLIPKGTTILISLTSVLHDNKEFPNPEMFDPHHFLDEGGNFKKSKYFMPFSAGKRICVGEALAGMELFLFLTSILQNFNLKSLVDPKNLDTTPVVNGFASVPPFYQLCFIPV

[12] = Terminal unbound brain concentration in rat model of amphetamine-induced hyperlocomotion activity at 1 to 10 mg/kg, po measured after 1.5 hrs; format: ADME, organism-based; settings: in vivo, dose 1-10 mg/kg
Cytochrome P450 1A2 [13] = target: T1, Cytochrome P450 1A2; test: […] of human CYP1A2 mediated drug metabolism incubated for 5 mins followed by NADPH addition measured after 1 hr by LC-UV/MS analysis relative to control; format: ADME; settings: recombinant enzyme, 1.083 h, time 65 min
Cytochrome P450 3A4 [14] = target: T2, Cytochrome P450 3A4 (Homo sapiens, UniProt P08684); test: […] of human CYP3A4 mediated drug metabolism incubated for 5 mins followed by NADPH addition measured after 1 hr by LC-UV/MS analysis relative to control; format: ADME; settings: recombinant enzyme, 1.083 h, time 65 min
T2 sequence (P08684 whole entry): as the sequence (P08684 whole entry) above

[15] = Terminal unbound plasma concentration in rat model of amphetamine-induced hyperlocomotion activity at 1 to 10 mg/kg, po measured after 1.5 hrs; format: ADME, organism-based; settings: in vivo, dose 1-10 mg/kg
[16] = Volume of distribution at steady state in Sprague-Dawley rat at 3 mg/kg,po or 1 mg/kg,iv by LC-MS/MS analysis; format: ADME, organism-based; settings: in vivo
[17] = target: Voltage-gated inwardly rectifying potassium channel KCNH2 (Homo sapiens, UniProt Q12809); test: Inhibition of hERG cardiac ion channel; format: toxicity
Sequence of Voltage-gated inwardly rectifying potassium channel KCNH2 (Q12809 whole entry): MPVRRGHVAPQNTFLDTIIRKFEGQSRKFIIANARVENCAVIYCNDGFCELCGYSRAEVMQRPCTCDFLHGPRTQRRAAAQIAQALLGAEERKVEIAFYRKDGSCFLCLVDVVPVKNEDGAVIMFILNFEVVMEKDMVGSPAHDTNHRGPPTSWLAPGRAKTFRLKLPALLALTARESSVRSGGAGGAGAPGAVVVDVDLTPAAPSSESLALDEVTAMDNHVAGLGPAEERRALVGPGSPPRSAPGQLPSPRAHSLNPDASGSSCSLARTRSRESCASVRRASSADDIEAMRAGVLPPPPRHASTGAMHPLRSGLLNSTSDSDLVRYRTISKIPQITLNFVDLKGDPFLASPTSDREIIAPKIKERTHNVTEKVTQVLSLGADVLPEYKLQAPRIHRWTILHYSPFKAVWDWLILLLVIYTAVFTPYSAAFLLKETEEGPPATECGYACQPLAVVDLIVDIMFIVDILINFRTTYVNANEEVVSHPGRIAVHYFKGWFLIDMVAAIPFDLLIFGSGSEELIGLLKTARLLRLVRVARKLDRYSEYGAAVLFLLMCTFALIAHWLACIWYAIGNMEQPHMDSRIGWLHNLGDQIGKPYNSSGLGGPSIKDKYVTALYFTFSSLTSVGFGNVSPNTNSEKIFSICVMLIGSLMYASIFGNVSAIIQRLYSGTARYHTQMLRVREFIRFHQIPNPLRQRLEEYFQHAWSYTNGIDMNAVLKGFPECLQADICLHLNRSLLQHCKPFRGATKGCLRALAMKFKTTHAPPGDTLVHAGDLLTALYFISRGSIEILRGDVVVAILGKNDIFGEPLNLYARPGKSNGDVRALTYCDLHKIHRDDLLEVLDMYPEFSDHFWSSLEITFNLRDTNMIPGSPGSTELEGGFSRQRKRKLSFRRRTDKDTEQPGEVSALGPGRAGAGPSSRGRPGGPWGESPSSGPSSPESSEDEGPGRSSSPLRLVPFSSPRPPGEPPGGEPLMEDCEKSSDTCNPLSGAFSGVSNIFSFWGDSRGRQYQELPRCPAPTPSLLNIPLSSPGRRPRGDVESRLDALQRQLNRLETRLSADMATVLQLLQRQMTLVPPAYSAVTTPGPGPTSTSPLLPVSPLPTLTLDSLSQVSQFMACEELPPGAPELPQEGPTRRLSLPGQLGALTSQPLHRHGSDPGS

[18] = Oral bioavailability in Beagle dog at 3 mg/kg by LC-MS/MS analysis; format: ADME, organism-based, Canis lupus familiaris; settings: in vivo
Cytochrome P450 3A4 [19] = target: T2, Cytochrome P450 3A4; test: Inhibition of CYP34A in human liver microsomes using midazolam as substrate incubated for 15 mins in presence of NADPH by LC/MS/MS analysis; format: ADME, Microsome
[20] = Fraction unbound in rat brain incubated for 6 hrs by LC/MS/MS analysis; format: ADME, tissue-based
[21] = Volume of distribution at steady state in Beagle dog at 3 mg/kg,po or 1 mg/kg,iv by LC-MS/MS analysis; format: ADME, organism-based, Canis lupus familiaris; settings: in vivo
[22] = Volume of distribution at steady state in Cynomolgous monkey at 0.2 mg/kg,iv by LC-MS/MS analysis; settings: cynomolgus monkey, in vivo, read-out: Vdss
[23] = Plasma protein binding in rat assessed as unbound fraction incubated for 4 hrs by LC/MS/MS analysis; format: ADME, cell-free
[24] = Cmax in Sprague-Dawley rat at 3 mg/kg,po by LC-MS/MS analysis; format: ADME, organism-based; design: dose 3 mg/kg, route po; settings: in vivo
[25] = Cmax in Beagle dog at 3 mg/kg,po by LC-MS/MS analysis; format: ADME, organism-based, Canis lupus familiaris; design: dose 3 mg/kg, route po; settings: in vivo
CYP1A2 = target: T3, CYP1A2 (Homo sapiens, UniProt P05177); test: Activation of CYP1A2 in human hepatocyte using phenacetin as substrate preincubated for 5 days followed by substrate addition and measured after 1 hr by LC-MS/MS analysis relative to control; format: ADME, cell-based; settings: hepatocytes, probe phenacetin, time 121 hrs
T3 sequence (P05177 whole entry): T1 sequence (P05177 whole entry)

With `COc1ccc(CNC(=O)c2sc3nnc(C)c(C)c3c2N)cc1F` the Tmax [1] was 45 min, the concentration at 1.5 h [2] was 1800 nM and the EC50 [3] was > 30 µM. The Activity [4] was “Non-Toxic”, the minimal effective dose (Rattus norvegicus [5]) was 10 mg/kg and the IC50 (Cytochrome P450 1A2 [6]) was > 30 µM. For the same compound, the Emax at 1 h (CYP3A4 (printed CYP34A)) was ≤ 1%, the Activity (Rattus norvegicus [7]) was 43.2% and the Kp uu [8] was 0.37. For the same compound, the fraction unbound at 4 h [9] was 0.054, the bioavailability [10] was 79% and the EC50 [11] was 0.087 µM. For the same compound, the Activity (CHO) was 74%, the Activity (Cytochrome P450 2C9) was 3.5% and the “Drug uptake(free)” value [12] was 0.02 µM. For the same compound, the Activity (Cytochrome P450 1A2 [13]) was 21.4%, the Activity (Cytochrome P450 3A4 [14]) was 43.7% and the “Cp(f)” value [15] was 60 nM. The Vdss [16] was 1.5 L/kg, the IC50 [17] was > 33 µM and the bioavailability [18] was 9.5%. The IC50 (Cytochrome P450 3A4 [19]) was > 30 µM, the fraction unbound at 6 h [20] was 0.037 and the Vdss [21] was 1.5 L/kg. For the same compound, the Vd [22] was 0.88 L/kg, the fraction unbound at 4 h [23] was 0.031 and the Cmax [24] was 1200 nM. The Cmax [25] was 220 nM and the Emax at 1 h (CYP1A2) was ≤ 1%.
